Measured values published in patent US11919901B2 (Syndax Pharmaceuticals, Inc., priority 2021, dated 2024).

Tests used:
Menin-MLL = Menin-MLL (Homo sapiens (Human), UniProt O00255); experiment: Determination of binding constants (Ki) to Menin-MLL (HTRF); conditions: HTRF, 0.25 nM H-FL-Menin, 3.2 nM FITC-MLL-4-43, 24 hr incubation; for Ki: read-out: Menin-MLL Ki HTRF Assay: Ki
hERG = hERG (Homo sapiens (Human), UniProt Q12809); experiment: Patch clamp assay (hERG tail currents, whole-cell); format: cell-based; conditions: hERG transfected HEK 293 cells; for hERG % Remaining 10 μM: 10 μM compound; for hERG % Remaining 30 μM: 30 μM compound
hERG, sequence (Q12809 whole entry): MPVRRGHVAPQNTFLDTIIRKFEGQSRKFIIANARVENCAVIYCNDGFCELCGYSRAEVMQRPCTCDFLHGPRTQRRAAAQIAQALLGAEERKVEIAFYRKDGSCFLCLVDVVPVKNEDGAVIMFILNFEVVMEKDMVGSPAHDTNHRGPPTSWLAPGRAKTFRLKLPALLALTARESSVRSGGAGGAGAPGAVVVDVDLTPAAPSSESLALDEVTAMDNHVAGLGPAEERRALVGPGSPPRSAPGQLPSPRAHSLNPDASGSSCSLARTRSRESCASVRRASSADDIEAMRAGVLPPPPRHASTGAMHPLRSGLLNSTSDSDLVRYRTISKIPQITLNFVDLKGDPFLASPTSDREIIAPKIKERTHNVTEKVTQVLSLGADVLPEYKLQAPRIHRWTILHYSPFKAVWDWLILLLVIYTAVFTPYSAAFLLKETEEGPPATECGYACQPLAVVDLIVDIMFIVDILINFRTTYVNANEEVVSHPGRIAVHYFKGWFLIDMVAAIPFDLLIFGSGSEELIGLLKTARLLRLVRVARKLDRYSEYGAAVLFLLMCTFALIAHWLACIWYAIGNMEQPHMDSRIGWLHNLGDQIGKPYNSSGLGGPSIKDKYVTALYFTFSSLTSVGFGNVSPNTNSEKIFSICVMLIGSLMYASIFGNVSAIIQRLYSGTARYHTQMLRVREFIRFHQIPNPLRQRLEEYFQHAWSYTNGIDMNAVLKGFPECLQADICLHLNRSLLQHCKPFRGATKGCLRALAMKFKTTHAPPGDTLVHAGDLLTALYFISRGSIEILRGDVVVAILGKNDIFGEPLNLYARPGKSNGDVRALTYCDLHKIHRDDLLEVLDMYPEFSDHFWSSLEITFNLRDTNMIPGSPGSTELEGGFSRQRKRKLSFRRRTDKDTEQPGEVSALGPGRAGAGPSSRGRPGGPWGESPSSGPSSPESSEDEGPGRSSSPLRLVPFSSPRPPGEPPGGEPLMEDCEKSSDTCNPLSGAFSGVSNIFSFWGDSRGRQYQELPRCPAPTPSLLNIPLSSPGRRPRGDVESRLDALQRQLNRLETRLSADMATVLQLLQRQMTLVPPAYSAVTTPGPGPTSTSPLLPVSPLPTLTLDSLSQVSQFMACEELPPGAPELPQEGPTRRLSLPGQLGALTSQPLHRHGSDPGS

Menin-MLL, sequence (O00255 whole entry): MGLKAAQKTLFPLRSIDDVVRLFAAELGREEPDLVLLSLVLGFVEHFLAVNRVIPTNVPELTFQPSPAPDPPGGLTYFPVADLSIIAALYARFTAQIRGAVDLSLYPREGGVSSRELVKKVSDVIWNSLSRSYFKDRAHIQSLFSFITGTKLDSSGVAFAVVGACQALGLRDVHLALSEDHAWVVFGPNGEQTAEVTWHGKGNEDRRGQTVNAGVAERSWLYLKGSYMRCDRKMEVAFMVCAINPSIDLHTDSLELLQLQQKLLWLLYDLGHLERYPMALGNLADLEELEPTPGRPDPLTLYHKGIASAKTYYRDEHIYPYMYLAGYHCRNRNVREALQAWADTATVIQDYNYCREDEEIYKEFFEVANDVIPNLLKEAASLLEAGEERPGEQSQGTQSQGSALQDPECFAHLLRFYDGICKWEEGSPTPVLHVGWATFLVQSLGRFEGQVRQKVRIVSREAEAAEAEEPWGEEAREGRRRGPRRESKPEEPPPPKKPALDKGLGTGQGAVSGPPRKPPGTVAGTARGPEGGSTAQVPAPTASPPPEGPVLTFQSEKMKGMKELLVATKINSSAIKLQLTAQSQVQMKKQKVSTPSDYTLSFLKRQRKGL

SMILES	EC50 (Menin-MLL)	Ki (Menin-MLL)	hERG % Remaining 10 μM (hERG)	hERG % Remaining 30 μM (hERG)	IC50 (hERG)
CCN(C(=O)c1cc(F)ccc1Oc1cncnc1N1CC2(CCN(C[C@@H]3CC[C@@H](NS(=O)(=O)c4csc(C)n4)CO3)CC2)C1)C(C)C [Compound 71, N-Ethyl-5-fluoro-N-isopropyl-2-((4-(7-(((2S,5R)-5-((2-methylthiazole)-4-sulfonamido)tetrahydro-2H-pyran-2-yl)methyl)-2,7-diazaspiro[3.5]nonan-2-yl)pyrimidin-5-yl)oxy)benzamide]	< 50 nM	< 1 nM	+++ (“+++” means ≥66%)	++ (“++” means ≥33% and <66%)	–
CCN(C(=O)c1cc(F)ccc1Oc1cncnc1N1CC2(CCN(C[C@@H]3CC[C@@H](NS(=O)(=O)c4cnc(C)o4)CO3)CC2)C1)C(C)C [Compound 72, N-Ethyl-5-fluoro-N-isopropyl-2-((4-(7-(((2S,5R)-5-((2-methyloxazole)-5-sulfonamido)tetrahydro-2H-pyran-2-yl)methyl)-2,7-diazaspiro[3.5]nonan-2-yl)pyrimidin-5-yl)oxy)benzamide]	–	< 1 nM	++ (“++” means ≥33% and <66%)	+ (“+” means <33%)	–
CCN(C(=O)c1cc(F)ccc1Oc1cncnc1N1CC2(CCN(C[C@@H]3CC[C@@H](NS(=O)(=O)c4c[nH]c(=O)cc4C)CO3)CC2)C1)C(C)C [Compound 75, N-Ethyl-5-fluoro-N-isopropyl-2-((4-(7-(((2S,5R)-5-((4-methyl-6-oxo-1,6-dihydropyridine)-3-sulfonamido)tetrahydro-2H-pyran-2-yl)methyl)-2,7-diazaspiro[3.5]nonan-2-yl)pyrimidin-5-yl)oxy)benzamide]	–	< 1 nM	–	+++ (“+++” means ≥66%)	–
CCN(C(=O)c1cc(F)ccc1Oc1cncnc1N1CC2(CCN(C[C@@H]3CC[C@@H](NS(=O)(=O)NC)CO3)CC2)C1)C(C)C [Compound 76, N-Ethyl-5-fluoro-N-isopropyl-2-((4-(7-(((2S,5R)-5-((N-methylsulfamoyl)amino)tetrahydro-2H-pyran-2-yl)methyl)-2,7-diazaspiro[3.5]nonan-2-yl)pyrimidin-5-yl)oxy)benzamide]	< 50 nM	< 1 nM	+++ (“+++” means ≥66%)	+++ (“+++” means ≥66%)	–
CC(C)N(C(=O)c1cc(F)ccc1Oc1cncnc1N1CC2(CCN(C[C@@H]3CC[C@@H](NS(=O)(=O)N4CCOCC4)CO3)CC2)C1)C(C)C [Compound 78, 5-Fluoro-N,N-diisopropyl-2-((4-(7-(((2S,5R)-5-(morpholine-4-sulfonamido)tetrahydro-2H-pyran-2-yl)methyl)-2,7-diazaspiro[3.5]nonan-2-yl)pyrimidin-5-yl)oxy)benzamide]	< 50 nM	< 1 nM	+++ (“+++” means ≥66%)	+++ (“+++” means ≥66%)	–
Cc1ncc(S(=O)(=O)N[C@@H]2CC[C@@H](CN3CCC4(CC3)CN(c3ncncc3Oc3ccc(F)cc3C(=O)N(C(C)C)C(C)C)C4)OC2)o1 [Compound 80, 5-Fluoro-N,N-diisopropyl-2-((4-(7-(((2S,5R)-5-((2-methyloxazole)-5-sulfonamido)tetrahydro-2H-pyran-2-yl)methyl)-2,7-diazaspiro[3.5]nonan-2-yl)pyrimidin-5-yl)oxy)benzamide]	–	< 1 nM	++ (“++” means ≥33% and <66%)	+ (“+” means <33%)	–
Cc1nc(S(=O)(=O)N[C@@H]2CC[C@@H](CN3CCC4(CC3)CN(c3ncncc3Oc3ccc(F)cc3C(=O)N(C(C)C)C(C)C)C4)OC2)cs1 [Compound 81, 5-Fluoro-N,N-diisopropyl-2-((4-(7-(((2S,5R)-5-((2-methylthiazole)-4-sulfonamido)tetrahydro-2H-pyran-2-yl)methyl)-2,7-diazaspiro[3.5]nonan-2-yl)pyrimidin-5-yl)oxy)benzamide]	–	< 1 nM	++ (“++” means ≥33% and <66%)	++ (“++” means ≥33% and <66%)	–
CC(C)N(C(=O)c1cc(F)ccc1Oc1cncnc1N1CC2(CCN(C[C@@H]3CC[C@@H](NS(=O)(=O)c4cnn(C)c4Cl)CO3)CC2)C1)C(C)C [Compound 82, 2-((4-(7-(((2S,5R)-5-((5-Chloro-1-methyl-1H-pyrazole)-4-sulfonamido)tetrahydro-2H-pyran-2-yl)methyl)-2,7-diazaspiro[3.5]nonan-2-yl)pyrimidin-5-yl)oxy)-5-fluoro-N,N-diisopropylbenzamide]	–	< 1 nM	++ (“++” means ≥33% and <66%)	+ (“+” means <33%)	–
CC(C)N(C(=O)c1cc(F)ccc1Oc1cncnc1N1CC2(CCN(C[C@@H]3CC[C@@H](NS(=O)(=O)c4cnn(C5CC5)c4)CO3)CC2)C1)C(C)C [Compound 83, 2-((4-(7-(((2S,5R)-5-((1-Cyclopropyl-1H-pyrazole)-4-sulfonamido)tetrahydro-2H-pyran-2-yl)methyl)-2,7-diazaspiro[3.5]nonan-2-yl)pyrimidin-5-yl)oxy)-5-fluoro-N,N-diisopropylbenzamide]	–	< 1 nM	+++ (“+++” means ≥66%)	++ (“++” means ≥33% and <66%)	–
Cc1ncc(S(=O)(=O)N[C@@H]2CC[C@@H](CN3CCC4(CC3)CN(c3ncncc3Oc3ccc(F)cc3C(=O)N(C(C)C)C(C)C)C4)OC2)s1 [Compound 84, 5-Fluoro-N,N-diisopropyl-2-((4-(7-(((2S,5R)-5-((2-methylthiazole)-5-sulfonamido)tetrahydro-2H-pyran-2-yl)methyl)-2,7-diazaspiro[3.5]nonan-2-yl)pyrimidin-5-yl)oxy)benzamide]	–	< 1 nM	++ (“++” means ≥33% and <66%)	+ (“+” means <33%)	–
CC(C)N(C(=O)c1cc(F)ccc1Oc1cncnc1N1CC2(CCN(C[C@@H]3CC[C@@H](NS(=O)(=O)c4cnn(C(F)F)c4)CO3)CC2)C1)C(C)C [Compound 85, 2-((4-(7-(((2S,5R)-5-((1-(Difluoromethyl)-1H-pyrazole)-4-sulfonamido)tetrahydro-2H-pyran-2-yl)methyl)-2,7-diazaspiro[3.5]nonan-2-yl)pyrimidin-5-yl)oxy)-5-fluoro-N,N-diisopropylbenzamide]	–	< 1 nM	++ (“++” means ≥33% and <66%)	+ (“+” means <33%)	–
CC(C)N(C(=O)c1cc(F)ccc1Oc1cncnc1N1CC2(CCN(C[C@@H]3CC[C@@H](NS(=O)(=O)c4cnn(C)c4)CO3)CC2)C1)C(C)C [Compound 86, 5-Fluoro-N,N-diisopropyl-2-((4-(7-(((2S,5R)-5-((1-methyl-1H-pyrazole)-4-sulfonamido)tetrahydro-2H-pyran-2-yl)methyl)-2,7-diazaspiro[3.5]nonan-2-yl)pyrimidin-5-yl)oxy)benzamide]	–	< 1 nM	+++ (“+++” means ≥66%)	+++ (“+++” means ≥66%)	≥ 50000 nM
CC(C)N(C(=O)c1cc(F)ccc1Oc1cncnc1N1CC2(CCN(C[C@@H]3CC[C@@H](NS(=O)(=O)c4ccn(C)n4)CO3)CC2)C1)C(C)C [Compound 87, 5-Fluoro-N,N-diisopropyl-2-((4-(7-(((2S,5R)-5-((1-methyl-1H-pyrazole)-3-sulfonamido)tetrahydro-2H-pyran-2-yl)methyl)-2,7-diazaspiro[3.5]nonan-2-yl)pyrimidin-5-yl)oxy)benzamide]	–	< 1 nM	–	+++ (“+++” means ≥66%)	–
CC(C)N(C(=O)c1cc(F)ccc1Oc1cncnc1N1CC2(CCN(C[C@@H]3CC[C@@H](NS(=O)(=O)N4CCC4)CO3)CC2)C1)C(C)C [Compound 88, 2-((4-(7-(((2S,5R)-5-(Azetidine-1-sulfonamido)tetrahydro-2H-pyran-2-yl)methyl)-2,7-diazaspiro[3.5]nonan-2-yl)pyrimidin-5-yl)oxy)-5-fluoro-N,N-diisopropylbenzamide]	–	< 1 nM	–	+++ (“+++” means ≥66%)	–
CC(C)N(C(=O)c1cc(F)ccc1Oc1cncnc1N1CC2(CCN(C[C@@H]3CC[C@@H](NS(=O)(=O)N(C)C(C)C)CO3)CC2)C1)C(C)C [Compound 89, 5-Fluoro-N,N-diisopropyl-2-((4-(7-(((2S,5R)-5-((N-isopropyl-N-methylsulfamoyl)amino)tetrahydro-2H-pyran-2-yl)methyl)-2,7-diazaspiro[3.5]nonan-2-yl)pyrimidin-5-yl)oxy)benzamide]	–	< 1 nM	–	++ (“++” means ≥33% and <66%)	–
CC(C)N(C(=O)c1cc(F)ccc1Oc1cncnc1N1CC2(CCN(C[C@@H]3CC[C@@H](NS(N)(=O)=O)CO3)CC2)C1)C(C)C [Compound 90, 5-Fluoro-N,N-diisopropyl-2-((4-(7-(((2S,5R)-5-(sulfamoylamino)tetrahydro-2H-pyran-2-yl)methyl)-2,7-diazaspiro[3.5]nonan-2-yl)pyrimidin-5-yl)oxy)benzamide]	–	< 1 nM	+++ (“+++” means ≥66%)	+++ (“+++” means ≥66%)	–
Cc1nc(S(=O)(=O)N[C@@H]2CC[C@@H](CN3CCC4(CC3)CN(c3ncncc3Oc3ccc(F)cc3C(=O)N(C(C)C)C(C)C)C4)OC2)co1 [Compound 91, 5-Fluoro-N,N-diisopropyl-2-((4-(7-(((2S,5R)-5-((2-methyloxazole)-4-sulfonamido)tetrahydro-2H-pyran-2-yl)methyl)-2,7-diazaspiro[3.5]nonan-2-yl)pyrimidin-5-yl)oxy)benzamide]	–	< 1 nM	–	++ (“++” means ≥33% and <66%)	–
